According to ChEMBL document CHEMBL3392975, “Design and nuclear magnetic resonance (NMR) structure determination of the second extracellular immunoglobulin tyrosine kinase A (TrkAIg2) domain construct for binding site elucidation in drug discovery” (J Med Chem, 2015):

What was measured:
[1] = target: T1, High affinity nerve growth factor receptor (Homo sapiens, UniProt P04629); test: Binding affinity to F303 residue of human recombinant TrkAIg2-NMR construct expressed in Escherichia coli by 1H-15N HSQC NMR spectroscopy
[2] = target: T1, High affinity nerve growth factor receptor; test: Displacement of [125I]NGF from full length human TrkA expressed in HEKN3S cells by gamma counting based radioligand competition assay; type: cell-based
[3] = target: T1, High affinity nerve growth factor receptor; test: Binding affinity to V305 residue of human recombinant TrkAIg2-NMR construct expressed in Escherichia coli by 1H-15N HSQC NMR spectroscopy
[4] = target: T1, High affinity nerve growth factor receptor; test: Binding affinity to C345 residue of human recombinant TrkAIg2-NMR construct expressed in Escherichia coli by 1H-15N HSQC NMR spectroscopy
[5] = target: T1, High affinity nerve growth factor receptor; test: Antagonist activity at full length glycosylated human TrkA expressed in HEKN3S cells assessed as reduction in NGF-induced ERK 42/44 phosphorylation incubated for 5 mins by automated immunofluorescence assay; type: cell-based
[6] = target: T1, High affinity nerve growth factor receptor; test: Binding affinity to T292 residue of human recombinant TrkAIg2-NMR construct expressed in Escherichia coli by 1H-15N HSQC NMR spectroscopy

T1 sequence (P04629 whole entry): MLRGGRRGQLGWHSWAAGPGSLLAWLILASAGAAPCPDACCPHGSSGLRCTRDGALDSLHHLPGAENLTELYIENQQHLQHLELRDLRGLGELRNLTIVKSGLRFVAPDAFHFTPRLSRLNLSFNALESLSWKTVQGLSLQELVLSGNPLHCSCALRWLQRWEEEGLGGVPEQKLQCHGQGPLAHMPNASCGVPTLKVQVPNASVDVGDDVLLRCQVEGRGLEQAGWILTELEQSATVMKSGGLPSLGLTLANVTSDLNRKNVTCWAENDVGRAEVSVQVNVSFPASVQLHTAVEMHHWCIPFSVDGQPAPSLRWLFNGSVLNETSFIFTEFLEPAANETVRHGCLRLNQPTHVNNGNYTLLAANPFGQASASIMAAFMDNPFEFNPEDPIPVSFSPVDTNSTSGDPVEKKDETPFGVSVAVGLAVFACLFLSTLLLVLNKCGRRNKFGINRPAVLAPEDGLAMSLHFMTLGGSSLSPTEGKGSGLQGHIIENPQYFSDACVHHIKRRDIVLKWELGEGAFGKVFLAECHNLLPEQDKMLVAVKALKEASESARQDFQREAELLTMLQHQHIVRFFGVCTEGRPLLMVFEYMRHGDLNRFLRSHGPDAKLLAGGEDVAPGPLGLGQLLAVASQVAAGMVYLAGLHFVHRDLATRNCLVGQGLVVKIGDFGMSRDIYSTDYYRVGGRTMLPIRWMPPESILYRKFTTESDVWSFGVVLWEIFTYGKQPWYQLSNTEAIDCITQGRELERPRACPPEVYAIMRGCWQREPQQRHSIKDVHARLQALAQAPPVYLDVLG

## CN(C)CCC=C1c2ccccc2CCc2ccccc21 [AMITRIPTYLINE]
[1]
  Kd: 2.2 mM
[2]
  IC50: 0.06 mM
[3]
  Kd: 2.1 mM
[4]
  Kd: 2.1 mM
[5]
  EC50: 0.086 mM
[6]
  Kd: 1.8 mM
